≈ marks a conversion by molar mass, not a printed value.
Conditions: for aqueous solubility: pH 6.8

| SMILES | intrinsic clearance, human liver microsomes | intrinsic clearance, rat liver microsomes | MDR1-MDCK efflux ratio | aqueous solubility | fraction unbound, human plasma | fraction unbound, rat plasma |
| --- | --- | --- | --- | --- | --- | --- |
| Cc1nc(NCc2ccc(F)c(Cl)c2)n(C)n1 | 7.77 mL/min/kg | 35.6 mL/min/kg | 0.789 | 43.7 µg/mL (≈ 172 µM) | – | – |
| COc1ccc(Cc2nnn[nH]2)cc1F | ≤ 4.74 mL/min/kg | ≤ 10.7 mL/min/kg | – | – | – | – |
| Cc1csc(N(C(=O)c2cc3c(C)nn(C)c3s2)C2CC2)n1 | 121 mL/min/kg | 255 mL/min/kg | 0.642 | 57.3 µg/mL (≈ 172 µM) | – | – |
| COc1cccc(S(=O)(=O)N2CCOC(c3c(C(N)=O)sc4ncccc34)C2)c1 (stereo not given) | – | – | 38.2 | – | – | – |
| COCC(=O)N1CCC(Cc2ccccc2-c2cccc(F)c2)(C(=O)NC(C)C)CC1 | 149 mL/min/kg | 572 mL/min/kg | 33.1 | – | 0.0395 | 0.119 |
| Cc1cc(C)c2c(N)c(C(=O)NCc3ccc(Cl)cc3)sc2n1 | 162 mL/min/kg | 1540 mL/min/kg | – | – | 0.00426 | 0.00652 |
| Cc1cc(C)c(-c2csc(CC(N)=O)n2)cc1C | – | – | 0.831 | – | – | – |
| COc1ncc(-c2cccc(N(C)C)c2)c(OC)n1 | 193 mL/min/kg | 2230 mL/min/kg | – | 24.9 µg/mL (≈ 96 µM) | – | – |
| Cc1nc(C(=O)NCC(=O)O)c(O)c2ccc(Oc3ccccc3)cc12 | ≤ 4.74 mL/min/kg | ≤ 10.7 mL/min/kg | 1.23 | – | – | – |
| CCN(CC)CC(=O)N1CCC(n2c(=O)[nH]c3ccccc32)CC1 | ≤ 4.74 mL/min/kg | 23.5 mL/min/kg | – | 48.9 µg/mL (≈ 148 µM) | – | – |
| CC1(C)CC(=O)C2=C(C1)NC(=O)CC2c1ccc(Br)cc1 (stereo not given) | 59.6 mL/min/kg | 247 mL/min/kg | 3.38 | – | 0.144 | 0.088 |
| Cc1cc(CN2CCC(N(C)c3ncc(Cl)cn3)CC2)on1 | 16 mL/min/kg | 127 mL/min/kg | 0.58 | – | – | – |
| CC(C)(C)C(=O)N1CCC(CN2C(=O)C(=O)N(C3CCCC3)C2=O)CC1 | 22.1 mL/min/kg | 288 mL/min/kg | 2.03 | 66.8 µg/mL (≈ 184 µM) | – | – |
| CC(C)NC(=O)CN(C#N)c1ccccc1 | ≤ 4.74 mL/min/kg | ≤ 10.7 mL/min/kg | – | – | – | – |
| CNC(=O)c1cc(C2CCN(C)CC2)ncn1 | ≤ 4.74 mL/min/kg | ≤ 10.7 mL/min/kg | 0.605 | 32.5 µg/mL (≈ 139 µM) | – | – |
| Cc1cc(C)n(-c2ccc(C(=O)NCc3cccnc3)cc2)n1 | ≤ 4.74 mL/min/kg | 94.4 mL/min/kg | 4.95 | 45.4 µg/mL (≈ 148 µM) | – | – |
| CCCc1ccc(-c2cccc(C(=O)N3CCN(CC(N)=O)CC3)c2)cc1 | 12.6 mL/min/kg | 707 mL/min/kg | 8.27 | – | – | – |
| Cc1ccnc(NC(=O)CN(C)c2ncnc3sc4c(c23)CCC(C)C4)c1 (stereo not given) | – | – | – | 3.88 µg/mL (≈ 10.2 µM) | – | – |
| O=c1c2c(Cl)ccc(Cl)c2ncn1Cc1cc(O)ncn1 | ≤ 4.74 mL/min/kg | ≤ 10.7 mL/min/kg | – | – | – | – |
| Nc1nc(N2CCN(CC3CCCC3)C(=O)C2)cc(-n2cccn2)n1 | 47.2 mL/min/kg | 1150 mL/min/kg | – | – | – | – |

Next, values leading:

| intrinsic clearance, human liver microsomes | intrinsic clearance, rat liver microsomes | MDR1-MDCK efflux ratio | aqueous solubility | fraction unbound, human plasma | fraction unbound, rat plasma | SMILES |
| --- | --- | --- | --- | --- | --- | --- |
| 210 mL/min/kg | 795 mL/min/kg | – | – | – | – | CO[C@H]1[C@H](C2(C)O[C@@H]2CC=C(C)C)[C@]2(CC[C@H]1OC(=O)/C=C/c1ccc(OCCN(C)C)cc1)CO2 (stereo not given in full) |
| – | – | 0.858 | – | – | – | COc1ccc(C(=O)N2CCN(C(=O)/C=C/c3ccc(Br)cc3)CC2)cc1 |
| 7.42 mL/min/kg | 76.3 mL/min/kg | 0.912 | 12.2 µg/mL (≈ 46 µM) | – | – | CCc1nnc(NC(=O)Cc2cccc(F)c2)s1 |
| 24.7 mL/min/kg | 290 mL/min/kg | 0.783 | 27.6 µg/mL (≈ 99 µM) | – | – | CCc1ccccc1-c1cn(CCc2cnccn2)nn1 |
| – | – | 1.17 | 0.17 µg/mL (≈ 0.438 µM) | – | – | N#C/C(=C\c1cnn(Cc2ccccc2)c1)c1nc2cc(Cl)ccc2c(=O)[nH]1 |
| ≤ 4.74 mL/min/kg | ≤ 10.7 mL/min/kg | 2.24 | 48 µg/mL (≈ 193 µM) | – | – | CCONC(=O)c1cncn1-c1ccc(F)cc1 |
| 12.9 mL/min/kg | 1110 mL/min/kg | 0.524 | – | – | – | NC(=O)CN1CCC(COc2ccccc2C(F)(F)F)CC1 |
| ≤ 4.74 mL/min/kg | 51.9 mL/min/kg | 3.63 | 32.4 µg/mL (≈ 130 µM) | – | – | CCc1cnc(CN2C(=O)NC3(CCC3)C2=O)o1 |
| 59.6 mL/min/kg | 350 mL/min/kg | 0.536 | 46.6 µg/mL (≈ 166 µM) | – | – | Cc1nccc(-c2cccc(NCc3cc(C)on3)c2)n1 |
| 66.2 mL/min/kg | 262 mL/min/kg | – | 24.2 µg/mL (≈ 58.4 µM) | – | – | CONC(=O)c1ccccc1Nc1cc(Nc2cc(C)nn2C(C)C)ncc1Cl |
| 190 mL/min/kg | 1520 mL/min/kg | 2.09 | – | – | – | c1ccc(N2CCOCC2)c(CNc2cc(N3CCCC3)ncn2)c1 |
| 330 mL/min/kg | 1380 mL/min/kg | 0.84 | 41.9 µg/mL (≈ 147 µM) | – | – | CN(C)CCN(Cc1ccccc1)Cc1ccccc1O |
| 25.9 mL/min/kg | 75.6 mL/min/kg | 0.621 | 39 µg/mL (≈ 172 µM) | – | – | NC(=O)COc1ccccc1-c1ccccc1 |
| ≤ 4.74 mL/min/kg | ≤ 10.7 mL/min/kg | 128 | – | – | – | O=C(c1ccc(Cl)cc1)N1CCC(c2nnc3n2CCCC3)CC1 |
| 267 mL/min/kg | 1390 mL/min/kg | 0.229 | 2.18 µg/mL (≈ 5.18 µM) | – | – | CCOC(=S)SCC(=O)Nc1nc(-c2ccc(C3CCCCC3)cc2)cs1 |
| – | – | 47.8 | – | – | – | CN[C@@H](C)C(=O)N[C@H](C(=O)N1CCC[C@H]1C(=O)Nc1snnc1-c1ccccc1)C1CCCCC1 |
| – | – | – | 3.07 µg/mL (≈ 10.8 µM) | – | – | CCCc1n[nH]c2c1C(C1CC=CCC1)C(C#N)=C(N)O2 (stereo not given) |
| 12.6 mL/min/kg | 1170 mL/min/kg | 1.39 | – | – | – | O=c1c(CO)cc2cc3c(cc2n1Cc1ccccn1)CCC3 |
| – | – | – | 35.5 µg/mL (≈ 154 µM) | – | – | O=C(Nc1nc2ccccc2[nH]1)C1CCCO1 (stereo not given) |
| – | – | – | 17.8 µg/mL (≈ 119 µM) | – | – | Nc1nc2c(N)ncnc2[nH]1 |
| ≤ 4.74 mL/min/kg | 201 mL/min/kg | – | – | – | – | O=C(c1cc(F)ccc1O)N1CCN(C2CCOCC2)CC1 |
| ≤ 4.74 mL/min/kg | 15.2 mL/min/kg | – | – | 0.0933 | 0.0425 | CCCNC(=O)NS(=O)(=O)c1ccc(Cl)cc1 |
| 34.8 mL/min/kg | 231 mL/min/kg | – | – | – | – | CC(=O)Nc1sc2c(c1-c1nc3ccccc3s1)CCN(C(C)C)C2 |
| 373 mL/min/kg | 578 mL/min/kg | 9.17 | 14.3 µg/mL (≈ 32 µM) | 0.0412 | 0.0729 | Cc1ncsc1C(=O)N1CCCCC1c1nc(N)ncc1-c1cccc(C(F)(F)F)c1 (stereo not given) |
